Measurements taken from ChEMBL document CHEMBL1201862, “PubChem BioAssay data set” (2004).
Several values for one entry are separate records, joined by “and”; a condition that tells them apart may be missing. Identical values can stand only once.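 Five concentrations, 48 hours, 96-well plates. The concentration for 50% growth inhibition is given as GI50.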 Activity calls are given as the source filed them. No stated cut-off is given here; in the data, active = GI50 up to about 1.1 µM and inactive = higher.

How the values were obtained:
Assay in all cases: NCI anticancer screen, dose series, 48 h
786-0 = system: 786-0
COLO 205 = system: COLO 205
DU-145 = system: DU-145
HOP-92 = system: HOP-92
HT-29 = system: HT-29
K562 = system: K562
MDA-MB-231 = system: MDA-MB-231
MDA-MB-435 = system: MDA-MB-435
NCI-H522 = system: NCI-H522
OVCAR-5 = system: OVCAR-5
OVCAR-8 = system: OVCAR-8
RPMI-8226 = system: RPMI-8226
SF-268 = system: SF-268
SK-MEL-28 = system: SK-MEL-28
SNB-75 = system: SNB-75
SR = system: SR
UACC-257 = system: UACC-257
UACC-62 = system: UACC-62
SK-MEL-2 = system: SK-MEL-2

Measured: GI50

O=c1c2cc([N+](=O)[O-])ccc2[nH]n1Cc1ccccc1Cl
inactive: 786-0 64.9 µM | COLO 205 73.3 µM | DU-145 47 µM | HOP-92 27.8 µM | HT-29 54.8 µM | K562 48.8 µM | MDA-MB-231 70.5 µM | MDA-MB-435 64.9 µM | NCI-H522 32.7 µM | OVCAR-5 > 100 µM | OVCAR-8 75.7 µM | RPMI-8226 30.1 µM | SF-268 > 100 µM | SK-MEL-28 44.6 µM | SNB-75 > 100 µM | SR 43.5 µM | UACC-257 98.6 µM | UACC-62 > 100 µM

O=C(O)/C(Cl)=C(\Cl)C(=O)Nc1ccc(Cl)c(Cl)c1Cl
inactive: 786-0 18.2 µM | COLO 205 20 µM | HOP-92 17.2 µM | HT-29 20.3 µM | K562 28 µM | NCI-H522 10.9 µM | OVCAR-5 18.2 µM | RPMI-8226 28.9 µM | SF-268 25 µM | SK-MEL-28 27.9 µM | SK-MEL-2 18.2 µM | SNB-75 18.8 µM | SR 25.1 µM | UACC-257 18.5 µM | UACC-62 13.3 µM

CC(N)C(=O)OCN1C(=O)C2C3C=CC(C2C1=O)C1C2C(=O)N(COC(=O)C(C)N)C(=O)C2C31 (stereo unspecified)
inactive: 786-0 20.8 µM | COLO 205 19.4 µM | HOP-92 57.5 µM | HT-29 34.6 µM | K562 24.8 µM | OVCAR-5 47.8 µM | OVCAR-8 22.1 µM | RPMI-8226 23.9 µM | SF-268 21.3 µM | SK-MEL-28 21.9 µM | SK-MEL-2 20.6 µM | SNB-75 25.6 µM | SR 5.57 µM | UACC-257 31.4 µM | UACC-62 22.8 µM

COc1ccc2cc1Oc1ccc(cc1)C[C@H]1c3cc(c(OC)cc3CCN1C)Oc1c(OC)c(OC)cc3c1[C@H](C2)N(C)CC3 [FANCHININ]
inactive: 786-0 3.05 µM and 43.5 µM | HOP-92 1.79 µM and 57.1 µM | K562 41.2 µM and 1.57 µM | MDA-MB-231 5.64 µM and 19.8 µM | NCI-H522 34.8 µM and 6.61 µM | OVCAR-8 8.38 µM and 53.7 µM | RPMI-8226 4.44 µM | SF-268 74.6 µM and 8.05 µM | SNB-75 43.2 µM and 6.55 µM | SR 2.47 µM and 12.1 µM | UACC-257 43.1 µM and 5.79 µM

NC(=O)COC(=O)c1c(Cl)nc2sccn12
inactive: 786-0 19.1 µM | COLO 205 > 60.3 µM | HOP-92 > 100 µM | HT-29 > 100 µM | K562 > 63.2 µM | NCI-H522 > 100 µM | OVCAR-5 > 100 µM | OVCAR-8 > 100 µM | RPMI-8226 > 37 µM | SF-268 > 100 µM | SK-MEL-28 > 100 µM | SK-MEL-2 > 100 µM | SNB-75 > 100 µM | SR 33.8 µM | UACC-257 > 100 µM | UACC-62 > 100 µM

CCOC(=O)C1=C(NC(C)(C)C)OCC1=O
inactive: 786-0 > 100 µM | COLO 205 > 100 µM | HOP-92 > 100 µM | HT-29 > 100 µM | K562 > 100 µM | NCI-H522 > 100 µM | OVCAR-5 > 100 µM | OVCAR-8 > 100 µM | RPMI-8226 > 100 µM | SF-268 > 100 µM | SK-MEL-28 > 100 µM | SK-MEL-2 > 100 µM | SNB-75 > 100 µM | SR > 100 µM | UACC-257 > 100 µM | UACC-62 > 100 µM
